This note sets out measurements from publication PMC7996082, “The translocator protein ligands as mitochondrial functional modulators for the potential anti-Alzheimer agents” (Journal of Enzyme Inhibition and Medicinal Chemistry, 2021).

Series [1] relates to acute AD model mice (Aβ1-42 ICV injected ICR mice). The experiment in a line: Y-maze spontaneous alternation test in acute AD model mice. It counts as in vivo, mouse. The conditions noted are these: 30 mg/kg daily, 6 days; for Recovery of Y-maze spontaneous alternations: i.p. How it is done:
The acute AD mice model was prepared by administration of Aβ1-42 solution (10% DMSO/90% PBS) to male ICR mice (6 weeks old, 30 − 33 g) via intracerebroventricular (ICV) injection (Aβ1-42 dose: 500 pmol/mouse) as described previously. The wild type mice (B6C3F1) and double APP/PS1 transgenic mice (Tg AD mice model; APPswe/PSEN1dE9) were purchased from Jackson Laboratory (Bar Harbour, ME, USA). The Tg AD model mice were 11 months old at the beginning of the behaviour test, and were housed for 1 month in a room under controlled temperature and fed ad libitum. The behaviour tests were conducted during daytime in air-controlled and soundproof experiment room. The animal experiments were abided by the guidelines of the Institutional Animal Care and Use Committee of Korea Institute of Science and Technology.
To the mice of the acute AD model (n = 7 per group), each test compound (test compound in 20% cyclodextrin, 30 mg/kg) was […] injected daily for 6 days. The Y-maze spontaneous alternation test was performed 1 day after the administration of each test compound. The Y maze was made of three equally spaced black plastic arms (40 L × 10 W × 12 H cm) positioned at an equal angle. Each mouse was placed at the end of one arm and allowed to move freely through the maze for 8 min, and the sequence of arm entries was recorded. The arm entry of the mouse was counted when the all four limbs were within an arm. A set of entries into all three arms is considered as a spontaneous alternation. The spontaneous alternation (%) was calculated by the following equation: Spontaneous alternation (%)=100x[number of alternations/(total number of arm entries – 2)]
We evaluated in vivo activity of 7 and 14 in an acute AD mouse model. The acute AD model mice were generated by the administration of Aβ1-42 peptide (500 pmol) according to the previously reported method, and each compound (30 mg/kg daily) was administered intraperitoneally for 6 days. Piracetam (30 mg/kg daily) was also administered in parallel for comparison. The Y-maze spontaneous alternation tests were performed to measure the recovery of learning and memory deficit in acute AD model mice[38]^,[39]. […] We believe that the treatment of 7 was beneficial for ameliorating Aβ-induced cognitive impairments.

The target of the next series is T1, hERG channel (Homo sapiens, UniProt Q12809).
T1 construct: host or cells: CHO-K1 Tet-On hERG cells
T1 sequence (Q12809 whole entry): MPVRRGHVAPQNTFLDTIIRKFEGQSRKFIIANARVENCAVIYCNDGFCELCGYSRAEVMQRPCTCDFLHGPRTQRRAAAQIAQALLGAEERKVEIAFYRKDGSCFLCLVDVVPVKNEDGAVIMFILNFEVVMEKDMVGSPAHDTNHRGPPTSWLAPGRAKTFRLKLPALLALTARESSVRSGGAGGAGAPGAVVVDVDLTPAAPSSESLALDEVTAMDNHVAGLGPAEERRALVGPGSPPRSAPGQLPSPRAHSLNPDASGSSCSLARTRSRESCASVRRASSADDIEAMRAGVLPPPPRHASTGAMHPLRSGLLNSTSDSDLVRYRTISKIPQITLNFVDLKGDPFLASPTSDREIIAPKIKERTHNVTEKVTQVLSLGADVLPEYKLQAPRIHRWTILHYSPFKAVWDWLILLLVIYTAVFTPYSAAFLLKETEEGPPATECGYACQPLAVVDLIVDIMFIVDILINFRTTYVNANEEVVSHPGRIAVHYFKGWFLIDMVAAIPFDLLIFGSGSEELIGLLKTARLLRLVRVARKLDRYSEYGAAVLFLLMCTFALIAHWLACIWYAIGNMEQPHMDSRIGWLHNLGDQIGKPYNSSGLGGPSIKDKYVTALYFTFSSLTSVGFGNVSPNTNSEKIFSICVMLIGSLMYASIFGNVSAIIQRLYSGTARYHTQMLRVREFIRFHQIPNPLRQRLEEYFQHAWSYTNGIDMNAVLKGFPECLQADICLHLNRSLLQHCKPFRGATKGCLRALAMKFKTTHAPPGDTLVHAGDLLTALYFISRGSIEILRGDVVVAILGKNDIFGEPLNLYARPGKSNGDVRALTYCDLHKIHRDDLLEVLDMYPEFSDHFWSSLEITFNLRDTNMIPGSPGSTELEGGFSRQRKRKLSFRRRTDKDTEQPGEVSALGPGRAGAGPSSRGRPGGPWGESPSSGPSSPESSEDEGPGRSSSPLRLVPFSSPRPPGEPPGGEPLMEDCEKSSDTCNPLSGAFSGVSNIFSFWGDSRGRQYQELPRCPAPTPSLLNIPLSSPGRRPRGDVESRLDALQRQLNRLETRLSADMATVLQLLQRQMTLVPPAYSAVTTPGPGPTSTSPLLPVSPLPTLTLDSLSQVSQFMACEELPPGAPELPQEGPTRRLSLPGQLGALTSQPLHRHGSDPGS
The experiment in a line: hERG inhibition assay (automated patch-clamp, CHO-K1 Tet-On hERG cells). Type of series: cell-based. The note with it: for IC50: patch-clamp, ± SD; for hERG inhibition (in words): authors' grading of Table 6. How it is done:
For automated patch-clamp NPC-16 Patchliner (Nanion Technologies, München, Germany) recordings, CHO-K1 Tet-On hERG cells (IonGate Biosciences GmbH, Frankfurt, Germany) were plated into 100-mm cell culture dishes. Whole-cell currents were recorded with the intracellular solution containing: 50 mM KCl, 60 mM KF, 10 mM NaCl, 2 mM MgCl2, 20 mM EGTA and 10 mM HEPES (pH 7.2), and with the extracellular solution containing: 140 mM NaCl, 4 mM KCl, 2 mM CaCl2, 1 mM MgCl2, 5 mM Glucose and 10 HEPES (pH 7.4). To assist stable seal formations, the seal enhancer containing: 80 mM NaCl, 3 mM KCl, 35 mM CaCl2, 10 mM MgCl2 and 10 mM HEPES (pH 7.4) was used only at the seal formation step. Prior to the whole-cell recordings, the external seal enhancing solution was exchanged to the extracellular solution described above. hERG channel currents were recorded using the parallel EPC-10 patch-clamp amplifiers (HEKA Elektronik, Lambrecht/Pfalz, Germany), and low-pass filtered (10 kHz) with a 4-pole Bessel filter. Cell suspension and patch solutions were automatically added onto the four recording wells in the microfabricated disposable chip (NPC-16 Chip, Nanion Technologies, München, Germany). To obtain the inhibitory constants, hERG tail currents were evoked by repolarizing steps to −50 mV for 500 ms preceded by a 500-ms depolarisation potential of +20 mV at a holding potential of −80 mV with a 20-s sweep interval. Whole-cell currents were acquired and digitised at 5 kHz using Patchmaster (HEKA Elektronik, Lambrecht/Pfalz, Germany). The extracellular solution was exchanged to the extracellular solution containing each blocker via four pipette tips of NPC-16 Patchliner using a 4-fold volume of solution (40 µL) with a speed of 4 µL/s, and the exchanged blocker solution was applied for 100–200 s to the patch-clamped cells until blocker binding had reached equilibrium by monitoring hERG tail currents. Whole-cell recordings were analysed using the Patchmaster/Fitmaster (HEKA Elektronik, Lambrecht/Pfalz, Germany), IGOR Pro (WaveMetrics Inc., Portland, OR, USA), and the GraphPad Prism 4.0 (GraphPad Software, Inc., La Jolla, CA, USA) software.
A general note: hERG is a cardiac potassium channel; its block is linked to QT prolongation.

A short description of series [2]: Liver microsomal stability. Type of series: in vitro ADME. The note with it: human, liver microsomes, 1 µM compound, 0.5 mg/mL microsomes, 30 min, 37 °C; read-out: Human Liver Microsomal Stability (% remaining after 30 min). The protocol:
Liver microsomes (human, dog, rat, and mouse; 0.5 mg/mL) were incubated with 1 µM of each test compound in the presence of potassium phosphate buffer (PPB) for 5 min at 37 °C. A solution of the NADPH regeneration system (#44332000, Oriental Yeast Co., Japan) was added to begin metabolic reactions of liver microsomes. The resulting mixtures were incubated for 30 min at 37 °C, and the reaction was terminated by the addition of a cold MeCN solution containing an internal standard (chlorpropamide). The mixture was separated by centrifugation (14,000 rpm for 5 min at 4 °C), and the supernatant was analysed by LC-MS/MS (Shimadzu Nexera XR system and TSQ vantage; Thermo Scientific).

The nature of series [3]: MTT assay: HT22 cell viability with compound alone. Type of series: cell-based, mouse. The conditions noted are these: mouse, HT22 cells; HT22 cell viability after 24 h of treatment with 5 μM compound, no Aβ. An outline of the steps: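 Viability is by MTT read-out at 560 nm after 2 h MTT and 2 h acidified Triton X-100/isopropanol solubilisation at 37 °C. Before that, cells plated 24 h earlier (5,000/well) received compound (5 µM solution) for 24 h at 37 °C. Values are referenced to 5 µM DMSO vehicle set as […].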
(In general: Tetrazolium dyes change colour on reduction, which living cells bring about.)

The IC50 is the concentration that gives 50% inhibition. Low values mean greater potency in that assay, high ones weaker potency in that assay. For orientation: amount remaining means the share of the starting amount still present when the sample was taken. The term viability denotes a read-out of living cells in per cent, often relative to untreated cells. Regarding `CCOc1ccc(-n2c(SCC(=O)Nc3ccc(OC)c(OC)c3)nc3sc4c(c3c2=O)CCN(C(C)=O)C4)cc1` [Compound 7], in series [1], the “Recovery of Y-maze spontaneous alternations” value (shortened to “Recovery”) stood at 76%. In addition, on hERG channel, 19.5 ± 4.43 µM corresponded to half-maximal inhibition (IC50). Besides, in series [2], the fraction remaining at 0.5 h, 1 µM was 49.6%. For the same molecule, the viability at 24 h, 5 µM in series [3] turned out to be 95%.

On to `CCOc1ccc(-n2c(SCC(=O)NC3CCN(C)CC3)nc3sc4c(c3c2=O)CCN(C(C)=O)C4)cc1` [Compound 30], for which the “Y-maze activity in acute AD model (in words)” value (“Y-maze activity” below) in series [1] is reported as “did not show significant activity”. In addition, on hERG channel, the “hERG inhibition (in words)” value is given as “low hERG inhibition” and the concentration for half-maximal inhibition (IC50) turned out to be 12.3 ± 1.25 µM. Moreover, the fraction remaining at 0.5 h, 1 µM in series [2] amounted to 99.1%. In addition, the viability at 24 h, 5 µM in series [3] stood at 98%.

As to `CCOc1ccc(-n2c(SCC(=O)NCc3ccccc3)nc3sc4c(c3c2=O)CCN(C(C)=O)C4)cc1` [Compound 31], in series [1], the “Recovery” value is listed as 107%. On hERG channel, the “hERG inhibition (in words)” value is “low hERG inhibition” and half-maximal inhibition (IC50) was put at 8.8 ± 2.36 µM. Also, the amount remaining at 0.5 h, 1 µM in series [2] stood at 32.7%. In addition, in series [3], the viability at 24 h, 5 µM is 109%.

With `CCOc1ccc(-n2c(SCC(=O)N3CCN(c4ccccc4)CC3)nc3sc4c(c3c2=O)CCN(C(C)=O)C4)cc1` [Compound 44], the “Recovery” value in series [1] was 98%. Besides, at hERG channel, the “hERG inhibition (in words)” value is given as “low hERG inhibition” and the midpoint of inhibition, the IC50, lay at 8.9 ± 0.22 µM. Also, the fraction remaining at 0.5 h, 1 µM in series [2] came to 15.3%. The viability at 24 h, 5 µM in series [3] was 97%.

For the molecule `CCOc1ccc(-n2c(SCC(=O)NCc3ccccc3)nc3sc4c(c3c2=O)CCN(C)C4)cc1` [Compound 49], the “Y-maze activity” value in series [1] was “did not show significant activity”. On hERG channel, the “hERG inhibition (in words)” value is given as “low hERG inhibition” and the IC50 was 15 ± 4.24 µM. The amount remaining at 0.5 h, 1 µM in series [2] is 87.9%. In series [3], the viability at 24 h, 5 µM stood at 99%.

Regarding `CCOc1ccc(-n2c(SCC(=O)N(C)Cc3ccccc3)nc3sc4c(c3c2=O)CCN(C)C4)cc1` [Compound 50], the “Y-maze activity” value in series [1] is reported as “did not show significant activity”. At hERG channel, the “hERG inhibition (in words)” value is “low hERG inhibition” and the midpoint of inhibition, the IC50, lay at 10.6 ± 0.97 µM. In series [2], the share remaining at 0.5 h, 1 µM turned out to be 73.1%. Also, the viability at 24 h, 5 µM in series [3] came out at 95%.
